These are literature values, as cited in patent publication US20070066584A1, “Amido compounds and their use as pharmaceuticals” (priority 2005, published 2007).

In the data set the target is T1, 11βHSD1 (Homo sapiens, UniProt P28845).
T1 construct: host or cells: healthy volunteers (eye; non-pigmented epithelial cells), in vivo
The following applies: healthy volunteers; after seven days of carbenoxolone treatment.

T1 sequence (P28845 whole entry): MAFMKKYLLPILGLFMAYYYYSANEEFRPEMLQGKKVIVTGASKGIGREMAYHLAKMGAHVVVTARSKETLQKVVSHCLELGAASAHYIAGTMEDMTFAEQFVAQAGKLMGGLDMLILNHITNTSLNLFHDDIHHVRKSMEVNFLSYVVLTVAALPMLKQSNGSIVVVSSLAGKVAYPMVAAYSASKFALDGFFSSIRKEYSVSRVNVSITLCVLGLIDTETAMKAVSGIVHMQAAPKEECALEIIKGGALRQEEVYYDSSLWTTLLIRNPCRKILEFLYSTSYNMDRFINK

For the compound `CC1(C)[C@@H](OC(=O)CCC(=O)O)CC[C@]2(C)[C@H]3C(=O)C=C4[C@@H]5C[C@@](C)(C(=O)O)CC[C@]5(C)CC[C@@]4(C)[C@]3(C)CC[C@@H]12` [carbenoxolone], the IOP reduced is on record as 18%.
